Data as given in PubChem BioAssay (NCI).
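Protocol summary: plate cells (96-well), add compound at 5 concentrations, incubate 48 h, interpolate endpoints linearly. The concentration for full growth arrest is given as TGI.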

Tests used:
Experiment in all cases: inhibition of tumour cell growth, NCI panel, 48 h
[1] = system: MCF7 breast
[2] = system: M14 melanoma
[3] = system: MDA-MB-231 breast
[4] = system: A498 renal
[5] = system: SNB-75 CNS
[6] = system: NCI-H23 lung
[7] = system: HCT-15 colon
[8] = system: NCI-H460 lung
[9] = system: OVCAR-8 ovarian
[10] = system: ACHN renal
[11] = system: RPMI-8226 leukemia
[12] = system: LOX IMVI melanoma
[13] = system: A549 NSCLC
[14] = system: HL-60(TB) leukemia
[15] = system: K-562 leukemia
[16] = system: OVCAR-3 ovarian
[17] = system: SK-MEL-28 melanoma
[18] = system: OVCAR-5 ovarian
[19] = system: UACC-62 melanoma

| SMILES | TGI [1] [µM] | TGI [2] [µM] | TGI [3] [µM] | TGI [4] [µM] | TGI [5] [µM] | TGI [6] [µM] | TGI [7] [µM] | TGI [8] [µM] | TGI [9] [µM] | TGI [10] [µM] | TGI [11] [µM] | TGI [12] [µM] | TGI [13] [µM] | TGI [14] [µM] | TGI [15] [µM] | TGI [16] [µM] | TGI [17] [µM] | TGI [18] [µM] | TGI [19] [µM] |
| --- | --- | --- | --- | --- | --- | --- | --- | --- | --- | --- | --- | --- | --- | --- | --- | --- | --- | --- | --- |
| O=C(OC[C@H]1C[C@H]2C(=O)CCC[C@H]2O1)c1ccccc1 | > 100 | > 100 | > 100 | > 100 | > 100 | > 100 | > 100 | > 100 | > 100 | > 100 | > 100 | > 100 | > 100 | > 100 | > 100 | > 100 | > 100 | > 100 | > 100 |
| CC1CCCCN1CC(=O)c1ccc2c(c1)Sc1ccccc1O2 (stereo not drawn) | 33.6 | 38.3 | 54.6 | 38.6 | 22.9 | 30.3 | 45.2 | 29.7 | 30.8 | 28.8 | > 100 | 38.7 | 30.7 | 47 | > 100 | 27.8 | 33.1 | 34.5 | 30.1 |
| Cn1cc(S(=O)(=O)NC(=O)Nc2ccc(Cl)cc2)c2ccccc21 | > 100 | > 100 | > 100 | > 100 | > 100 | > 100 | 20.7 | > 100 | > 100 | > 100 | > 100 | > 100 | > 100 | > 100 | > 100 | > 100 | > 100 | > 100 | 79.9 |
| COc1cccc(CCNc2c(C#N)c3nc4ccccc4n3c3ccccc23)c1 | > 100 | > 100 | > 100 | > 26.2 | > 58 | > 30.5 | > 100 | > 100 | > 100 | > 100 | > 100 | > 100 | > 100 | > 100 | > 100 | > 100 | > 100 | > 100 | > 100 |
| C=CCc1cc(C=C(C#N)C#N)cc(OC)c1O | > 100 | > 100 | > 100 | > 100 | > 100 | > 100 | > 100 | > 100 | > 100 | > 100 | > 100 | > 100 | > 100 | 89.1 | > 100 | > 100 | > 100 | > 100 | > 100 |
| CC(C)(C)OC(=O)NCCC(=O)NC1(c2cc3ccccc3s2)CCCCC1 | 41 | 34.2 | 38.4 | 45.4 | 38.7 | 31.4 | 30.6 | 34.3 | 35.8 | 61.4 | 20.5 | 36.5 | 38.6 | 35.1 | 28.9 | 33.2 | 35 | 39.9 | 49.1 |
| O=C(O)CC1NC(/C(=C/c2ccccc2O)NC(=O)c2ccccc2)OC1=O (stereo not drawn) | > 100 | > 100 | > 68.3 | > 100 | > 63.6 | > 100 | > 100 | > 100 | > 87.8 | > 51 | > 100 | > 100 | > 100 | > 100 | > 100 | > 61.2 | > 100 | > 100 | > 100 |
| Cc1c(-c2ccccc2)c(C#N)c2nnn(C3CCCCC3)c(=O)n12 | > 100 | > 100 | 66 | > 100 | 68.8 | > 100 | > 100 | > 100 | > 100 | > 100 | > 100 | > 100 | > 100 | > 100 | > 100 | > 100 | > 100 | > 100 | > 100 |
| NC(=O)C(=CNC(=S)Nc1ccc(Cl)c(Cl)c1)C(N)=O | > 100 | > 100 | > 100 | > 100 | > 100 | > 100 | > 100 | > 100 | > 100 | > 100 | > 100 | > 100 | > 100 | > 100 | > 100 | > 100 | > 100 | > 100 | > 100 |
| CCOC(=O)/C(N=Nc1ccc(-n2c(C)nc3ccc(Br)cc3c2=O)cc1)=C(/C)O | > 100 | > 100 | > 100 | > 100 | 86.7 | > 100 | > 100 | > 100 | > 100 | > 100 | > 100 | > 100 | > 100 | > 100 | > 100 | > 100 | > 100 | > 100 | > 100 |
| NNC1=N/C(=C\c2ccco2)C(=O)N1 | > 100 | > 100 | > 100 | > 100 | > 100 | > 100 | > 100 |  | > 100 | > 100 | > 100 | > 100 | > 100 | > 100 | > 100 | > 100 | > 100 | > 100 | > 100 |
